Entries after “also recorded” stand apart in the source; their conditions may differ.
Tests used:
[1] = biological target: T1, pCAF (Homo sapiens, UniProt Q92831); assay: Core histone acetylation filter binding HAT assay, pCAF; type: biochemical; details: core histones; for inhibitory activity on pCAF HAT: range of concentrations tested; for 50% inhibition (IC50): 30 minutes 30° C
T1 construct: purchased BIOMOL International (Plymouth Meeting, Pa.)
Method: (§1) In the presence of 0.5 μCi [^3H]acetyl Co A, 10 μg core histones was incubated with either 0.5 μg pCAF (filled circles, […]) or 0.83 μg p300 HAT domain (open circles, ∘) and the indicated heparin concentrations for 30 minutes at 30° C. Formation of [^3H]acetylated core histones was determined by vacuum filtration of the samples across a nitrocellulose membrane and quantitated by liquid scintillation counting. The data is expressed as the mean % Control ±SD. Background CPM in samples without added enzyme was 5781.25 while [^3H]acetylated histone CPM in samples without heparin were 16484.5 for the pCAF containing samples and 9960.5 for the p300 HAT domain samples.
10 μg core histones were incubated with 0.5 μg pCAF, 0.5 μCi [^3H]acetyl Co A and the indicated concentrations of chondroitin sulfate (filled circles, […]), dextran (open circles, ∘), D-glucosamine (filled squares, ▪), hyaluronic acid (open squares, □) or keratan sulfate (filled triangles, ▴) for 30 minutes at 30° C. 35 μl aliquots of the reaction mixtures were spotted onto nitrocellulose filter in a dot blot apparatus under vacuum to remove unincorporated [^3H]acetyl Co A. The sample wells and filters were washed with 50 mM tris pH 7.6 and the samples were processed for liquid scintillation counting. The data is expressed as the mean % Control ±SD. 100% is equal to the activity in the absence of any additives.
(§2) 10 μg core histones was incubated with 0.5 μg pCAF, 0.5 μCi [^3H]acetyl Co A and the indicated concentrations of N-Desulfated Heparin (filled circles, […]) or Fully O-Desulfated Heparin (open circles, ∘) for 30 minutes at 30° C. 35 μl aliquots of the reaction mixtures were filtered through a nitrocellulose filter in a Bio Dot Apparatus under vacuum. The wells and filter were washed with 50 mM tris pH 7.6 and the membrane was processed for liquid scintillation counting. The data is expressed as the mean % Control ±SD.
FIGS. 15A and 15B show inhibition of pCAF HAT Activity by elastase generated proteoglycans. FIG. 15A, Proteoglycans (PG) were purified from pulmonary fibroblast elastase supernatants using anion exchange chromatographic methods. Heparan sulfate proteoglycan fragments (HSPGf) were generated by treating the PG fraction with 10 mU/ml chondroitinase ABC and repurifying the fragments by anion exchange chromatography. Core histones (10 μg) were incubated with 0.5 μg pCAF, 0.5 μCi [^3H]acetyl Co A and the indicated concentrations of PG (filled squares, ▪) or HSPGf (open squares, □) for 30 minutes at 30° C. 35 μl aliquots of the reaction mixtures were filtered through a nitrocellulose filter and the membrane was processed for liquid scintillation counting. The data is expressed as the mean % Control ±SD. FIG. 15B, Proteoglycans (PG) were purified from another preparation of pulmonary fibroblast elastase supernatants. Free GAG chains (B-PG) were generated by treating the PG fraction with alkaline borohydride and were recovered by anion exchange methods. Core histones (Core histones (10 μg) were incubated with 0.5 μg pCAF, 0.5 μCi [^3H]acetyl Co A and the indicated concentrations of PG (filled squares, ▪) or B-PG (open squares, □) for 30 minutes at 30° C. 35 μl aliquots of the reaction mixtures were filtered through a nitrocellulose filter and the membrane was processed for liquid scintillation counting. The data is expressed as the mean % Control ±SD.
as §2, with “2-O-Desulfated” for “N-Desulfated”, “([…])” for “(filled circles, […])”, “6-O-Desulfated” for “Fully O-Desulfated”, “(∘)” for “(open circles, ∘)”, “±SD. […]” for “±SD.”

[2] = biological target: T2, p300 HAT domain (Homo sapiens, UniProt Q09472); assay: In vitro HAT activity assay, biotinylated histone H4 peptide substrate, streptavidin capture; type: biochemical; details: for HAT inhibitory activity of modified heparins: 10 ug/ml, p300, H4 peptide (FIG. 9)
T2 construct: 20 U/mL of HAT enzyme (p300 HAT domain; from Upstate); purchased Upstate (Lake Placid, N.Y.)
T2 sequence (Q09472 1287-1663 limits assumed): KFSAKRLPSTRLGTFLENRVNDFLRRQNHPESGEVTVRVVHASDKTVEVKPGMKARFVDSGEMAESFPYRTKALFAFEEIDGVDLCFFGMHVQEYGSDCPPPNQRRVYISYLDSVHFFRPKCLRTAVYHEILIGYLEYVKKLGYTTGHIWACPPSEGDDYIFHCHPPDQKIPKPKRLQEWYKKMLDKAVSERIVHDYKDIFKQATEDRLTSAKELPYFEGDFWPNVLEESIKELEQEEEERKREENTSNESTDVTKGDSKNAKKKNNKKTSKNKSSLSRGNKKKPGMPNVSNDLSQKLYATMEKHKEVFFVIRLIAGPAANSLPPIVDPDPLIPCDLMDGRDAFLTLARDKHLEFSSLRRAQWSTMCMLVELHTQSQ
Method: Biotinylated histone H4 peptide (substrate) is incubated with recombinant HAT enzyme (p300 catalytic domain) and ^3H-Acetyl-CoA, resulting in the covalent transfer of ^3H-acetate to the substrate. The ^3H-acetylated substrate can be extracted using immobilized streptavidin and counted in a scintillation counter. Thus, the amount of ^3H-acetylated substrate is a direct measure of HAT enzyme activity. Additional assays for HAT activity use core histones as the substrate and the ^3H-acetylated histone reaction products were separated from ^3H-Acetyl-CoA by membrane filtration.
Various concentrations of heparin were incubated in the presence of biotinylated histone H4 peptide, recombinant p300 catalytic domain, and [^3H]-acetyl-CoA for 1 hr at 30° C. Immobilized streptavidin was used to sequester the biotinylated substrate and was counted in a scintillation counter. Data presented are means of duplicates ±1 SE and are representative of five separate experiments. The amount of [^3H] associated with the immobilized streptavidin-biotinylated substrate in the absence of HAT enzyme (negative control) was 54.2±12.0.
HAT activity was assessed in vitro as outlined in FIG. 2. In a 1.7 mL microcentrifuge tube, 100 μL of substrate (biotinylated histone H4 peptide in 50 mM Tris, pH 7.4, 1 mM EDTA; from Pierce), 100 μL of a 5 mg/mL BSA solution (in H2O), 10.5 μL of 10×HAT buffer (500 mM Tris, pH 7.4, 10 mM EDTA), 20 U/mL of HAT enzyme (p300 HAT domain; from Upstate), and 1 μCi/mL of [^3H] Acetyl-CoA (Amersham) were mixed together and the reaction was allowed to proceed at 30° C. for 1 hour. Following this incubation, 100 μL of a 1:1 slurry of immobilized streptavidin (Pierce) pre-equilibrated in 1×HAT buffer (50 mM Tris, pH 7.4, 1 mM EDTA) was added and the sample was incubated for 30 min at RT on a rotating platform. After centrifugation at 10,000 g for 4 min, the supernatant containing the excess reactants was removed and the pellet containing the acetylated substrate bound to the immobilized streptavidin was washed 3 times with 500 μL RIPA buffer (50 mM Tris, pH 7.4, 150 mM NaCl, 1 mM EDTA, 1% NP-40, 0.5% SDC, 0.1% SDS). After the final wash, the pellet was resuspended in 500 μL 1×HAT buffer, diluted in EcoLite, and counted in a scintillation counter. Because of sample volume restrictions, reaction volumes were scaled down in some experiments.

[3] = system: histone H3 acetylation in aortic smooth muscle cells; assay: Histone H3 acetylation in aortic smooth muscle cells by western blot; type: cell-based, neonatal rat; details: 10 μg/ml, 24 h
Method: (§3) Primary neonatal rat fibroblasts and smooth muscle cells were established as described (Foster, J. A. et al., (1990)) and treated with heparin or N-desulfated heparin (10 μg/ml) for 24 h. Total cell extracts (100 μg protein for fibroblasts and 200 μg protein for smooth muscle cells) were generated and subjected to SDS-PAGE followed by electrotransfer to Immobilon membrane. Membranes were incubated with anti-acetylated histone H3 (Upstate) followed by enzyme linked secondary antibody. Bands were visualized with ECL.
Immobilon membranes were blocked for 1 hour at room temperature with blocking buffer containing 3% milk in tris buffered saline containing 0.1% tween-20 (TBST). The blots were rinsed twice with TBST prior to incubation with the primary antibody solutions. The blots were incubated with the appropriate antibody dilution for 1 hour at room temperature or overnight at 4° C. The blots were washed with TBST prior to incubation with the appropriate HRP-linked IgG for 1 hour at room temperature. The blots were washed with TBST prior to chemiluminescence exposure.
We also treated another cell type, aortic smooth muscle cells, with heparin to determine if this response was general or specific to the pulmonary cells.

[4] = biological target: T2, p300 HAT domain; assay: Core histone acetylation filter binding HAT assay, p300; type: biochemical; details: core histones, 30 minutes 30° C
Method: as §1
Heparin-mediated inhibition of HAT activity was determined using two independent methods. The first assay method used a modified protocol to measure the ability of pCAF or p300 to acetylate a synthetic, biotinylated peptide of histone H3 or H4 in the absence and presence of heparin or its derivatives. Commercially available pCAF or p300 HAT domain were added to an iced reactions mixture containing 3 μg biotinylated Histone H3 or H4 peptide, 50 mM tris pH 7.4, 1 mM EDTA with and without the indicated concentrations of heparin. […] The filter was allowed to air dry and the filters were processed and counted using liquid scintillation methods.

[5] = system: histone H3 acetylation in pulmonary fibroblasts; assay: Histone H3 acetylation in pulmonary fibroblasts by western blot; type: cell-based, neonatal rat; details: 10 μg/ml, 24 h
Method: as §3
Primary cultures of pulmonary fibroblasts were isolated from the lungs of neonatal rats using established protocols (Foster, J. A., et al., (1990) Pulmonary fibroblasts: an in vitro model of emphysema. Regulation of elastin gene expression, J Biol Chem 265, 15544-9). The cells were maintained in Dulbecco's Minimal Essential Medium supplemented with 5% fetal bovine serum, 0.1 mM non-essential amino acid solution, 100 U/ml penicillin and 100 μg/ml streptomycin. The cells were used in second passage for all experiments. Cell number determination was made based upon assay of cellular acid phosphatase levels using a previously established method (Connolly, D. T., et al., (1986) Anal. Biochem. 152, 136-140).
Immobilon membranes were blocked for 1 hour at room temperature with blocking buffer containing 3% milk in tris buffered saline containing 0.1% tween-20 (TBST). […]

T1 sequence (Q92831 whole entry): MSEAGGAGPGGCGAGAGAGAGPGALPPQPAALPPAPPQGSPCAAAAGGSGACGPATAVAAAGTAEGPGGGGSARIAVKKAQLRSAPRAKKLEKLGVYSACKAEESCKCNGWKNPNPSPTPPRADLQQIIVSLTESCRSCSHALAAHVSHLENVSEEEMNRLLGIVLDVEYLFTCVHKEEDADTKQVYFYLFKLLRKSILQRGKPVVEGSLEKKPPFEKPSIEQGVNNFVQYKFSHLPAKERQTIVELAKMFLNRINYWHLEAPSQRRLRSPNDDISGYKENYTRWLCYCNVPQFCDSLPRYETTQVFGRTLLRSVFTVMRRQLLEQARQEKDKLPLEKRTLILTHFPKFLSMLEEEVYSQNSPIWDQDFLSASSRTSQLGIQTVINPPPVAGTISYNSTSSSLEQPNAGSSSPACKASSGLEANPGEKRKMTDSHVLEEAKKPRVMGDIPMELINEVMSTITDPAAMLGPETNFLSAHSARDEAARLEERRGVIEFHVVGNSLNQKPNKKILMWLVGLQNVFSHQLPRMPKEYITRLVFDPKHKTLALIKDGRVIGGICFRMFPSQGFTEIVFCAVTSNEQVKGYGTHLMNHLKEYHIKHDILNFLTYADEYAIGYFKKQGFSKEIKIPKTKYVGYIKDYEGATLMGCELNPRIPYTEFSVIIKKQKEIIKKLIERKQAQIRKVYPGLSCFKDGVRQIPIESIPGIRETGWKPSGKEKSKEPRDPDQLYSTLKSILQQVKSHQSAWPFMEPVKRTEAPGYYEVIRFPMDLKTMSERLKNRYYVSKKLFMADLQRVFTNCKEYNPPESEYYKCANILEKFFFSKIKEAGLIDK

## CC(=O)N[C@H]1C(O)O[C@H](CO)[C@@H](O)[C@@H]1O (stereo partly drawn) [N-acetyl glucosamine, N-Acetyl-D-glucosamine, reference compound]
[1]
  inhibitory activity on pCAF HAT: none of the monosaccharides showed any significant inhibitory activity

## keratan sulfate
[1]
  inhibitory activity on pCAF HAT: showed inhibition

## 2-O desulfated heparin
[1]
  inhibitory activity on pCAF HAT: did not result in significant loss of function
[2]
  HAT inhibitory activity of modified heparins: retained HAT inhibitory activity; also recorded: showed reduced activity when compared to heparin

## O=C[C@H](O)[C@@H](O)[C@H](O)[C@H](O)C(=O)O [glucuronic acid, reference compound]
[1]
  inhibitory activity on pCAF HAT: none of the monosaccharides showed any significant inhibitory activity

## chondroitin sulfate
[1]
  inhibitory activity on pCAF HAT: showed inhibition

## N-desulfated heparin
[1]
  50% inhibition (IC50): ~20 µg/mL
[2]
  HAT inhibitory activity of modified heparins: nearly eliminated HAT (p300) inhibition

## N[C@H]1C(O)O[C@H](CO)[C@@H](O)[C@@H]1O (stereo partly drawn) [glucosamine, D-glucosamine, reference compound]
[1]
  inhibitory activity on pCAF HAT: none of the monosaccharides showed any significant inhibitory activity

## 6-O desulfated heparin
[1]
  inhibitory activity on pCAF HAT: did not result in significant loss of function
[2]
  HAT inhibitory activity of modified heparins: retained HAT inhibitory activity; also recorded: showed reduced activity when compared to heparin

## heparin [reference compound]
[1]
  50% inhibition (IC50): ~7 µg/mL
[3]
  level of histone H3 acetylation: significant reduction of histone H3 acetylation
[4]
  50% inhibition (IC50): ~5 µg/mL
[2]; 34 μg/mL
  inhibition of HAT activity: almost complete inhibition
[2]; molecular weight ~15 kD, read-out: IC50 for HAT activity, molar equivalent
  IC50: ~1100 nM
[5]
  level of histone H3 acetylation: reduced histone H3 actetylation slightly

## dextran [reference compound]
[1]
  inhibitory activity on pCAF HAT: did not show any inhibitory activity

## hyaluronic acid
[1]
  effectiveness relative to heparin and other GAGs: the least effective
  inhibitory activity on pCAF HAT: showed inhibition

— patent publication US20080227752A1, “Methods to Inhibit Histone Acetyltransferase Using Glycosaminoglycans” (Trustees of Boston University, priority 2004, published 2008)
